Data on nine molecules can be found in patent US12152048B2, “Nitroxoline prodrug and use thereof” (Jiangsu Yahong Meditech Co., Ltd., priority 2018, dated 2024).

≈ marks a conversion by molar mass, not a printed value.

Data set [1] can be described thus: Stability in human liver microsome. Particulars: 2 μM, 37° C., 30 minutes. In general terms: Liver microsomes are a subcellular fraction often used to study metabolism.
Data set [2] in a line: Stability in dog liver microsome. As to conditions: 2 μM, 37° C., 30 minutes.
A short description of data set [3]: Stability in rat liver microsome. As to conditions: 2 μM, 37° C., 30 minutes.
Description: Experimental instruments: thermostatic shaker (SHA-B, Guohua Electric Appliance Co., Ltd.); centrifuge (5810R, Eppendorf); mass spectrometry (API4000, Applied Biosystems, USA); liquid chromatography (LC-30AD, Shimadzu); sample injector (CTC Analytics AG System, CTC).
Experimental process: 25 μg/mL alamethicin (Aldrich), 5 mM magnesium chloride and 0.5 mg/mL microsome (XENOTECH) were added to 100 mM phosphate buffer to obtain a coenzyme-free reaction solution. A portion of the coenzyme-free reaction solution was added with 1 mM reductive nicotinamide adenine dinucleotide phosphate (Aldrich) and 5 mM uridine diphosphate glucuronic acid (Aldrich) to obtain a coenzyme-containing reaction solution. The working solution of the compound of the present invention was added to the two reaction solutions so that the final concentration of the compound was 2 μM. Immediately after mixing well, 50 μL of the solution were taken out as the 0 minute sample, and 50 μL of the remaining sample were taken out after incubating at 37° C. for 30 minutes. All the samples taken out were immediately processed to precipitate protein, and centrifuged to obtain a supernate for the determination of the compound concentration by LC/MS/MS.
Data set [4] is described as follows: Stability in mouse liver microsome. Particulars: 2 μM, 37° C., 30 minutes. It counts as in vitro ADME.
The nature of data set [5]: Determination of water solubility in phosphate buffer. It is filed as physicochemical. Particulars: for solubility at 24 h: aqueous buffer, thermodynamic from solid, phosphate buffer pH 7.4, room temperature; for water solubility compared with nitroxoline: conclusion in words. The source says:
Experimental instruments: 96-well filter plate (MSHVN4510 or MSHVN4550, Millipore); electronic digital display vortex mixer (MS3 Digital, IKA); multi-purpose vacuum pump (circulating water type, SHB-111, Zhengzhou Greatwall Scientific Industrial and Trade Co., Ltd.); balance (XSLT05, Mettler-Toledo); comfortable mixer (Eppendorf AG 22331 Hamburg, Eppendorf); liquid chromatography (LC-3AD, Shimadzu); mass spectrometry (API4000, Applied Biosystems, USA); sample injector (Anylytics AG System, CTC). Nitroxoline was prepared according to the method disclosed in Journal of Heterocyclic Chemistry, 1971, vol. 8, p 821 by Wisdom Pharmaceutical Co., Ltd.
Experimental process: 500 μL of phosphate buffer (pH=1.2, 4.5, 6.8 or 7.4) were added to a glass flask, to which 2 mg of compound powder were added. The flask was sealed with a cap and shaked on a mixer (VORTEX-GENIE2) at room temperature for 24 hours. The solution was subjected to vacuum filtration, and the filtrate was processed to determine the compound concentration by LC/MS/MS.

With `CC(=O)OCOc1ccc([N+](=O)[O-])c2cccnc12` [Compound 1, (5-nitroquinolin-8-yloxy)methyl acetate], the “Percentage of the compound remaining in human liver microsome” value in data set [1] (with coenzyme) was determined as 0.24%; in data set [1] (without coenzyme), 0.76%. For the same molecule, the “Percentage of the compound remaining in dog liver microsome” value is listed as 0.42% in data set [2] (with coenzyme) and 0.73% in data set [2] (without coenzyme). Further, the “Percentage of the compound remaining in rat liver microsome” value in data set [3] (with coenzyme) is reported as 0.15%; in data set [3] (without coenzyme) it was 0.27%. For the same molecule, the “Percentage of the compound remaining in mouse liver microsome” value in data set [4] (with coenzyme) is on record as 0.16%; in data set [4] (without coenzyme), 0.27%. Moreover, in data set [5], the solubility – broadly, the concentration that dissolves in the medium under given conditions – at 24 h stood at 91.1 µg/mL.
As for `CCC(=O)OCOc1ccc([N+](=O)[O-])c2cccnc12` [Compound 2, (5-nitroquinolin-8-yloxy)methyl propionate], the results for the “Percentage of the compound remaining in human liver microsome” value in data set [1] (with coenzyme) and in data set [1] (without coenzyme) were 0.27% and 0.16%, respectively. In addition, the “Percentage of the compound remaining in dog liver microsome” value in data set [2] (with coenzyme) is 0.13%; in data set [2] (without coenzyme), 0.18%. In addition, the “Percentage of the compound remaining in rat liver microsome” value turned out to be 0.52% in data set [3] (with coenzyme) and 0.45% in data set [3] (without coenzyme). The “Percentage of the compound remaining in mouse liver microsome” value was determined as 0.10% in data set [4] (with coenzyme) and 0.02% in data set [4] (without coenzyme). The molecule further came in with a solubility at 24 h in data set [5] of 72.7 µg/mL (≈ 263 µM).
Consider `CC(C)C(=O)OCOc1ccc([N+](=O)[O-])c2cccnc12` [Compound 3, (5-nitroquinolin-8-yloxy)methyl isobutyrate], for which the entries for the “Percentage of the compound remaining in human liver microsome” value in data set [1] (with coenzyme) and in data set [1] (without coenzyme) were 0.05% and 0.06%, respectively. Further, the “Percentage of the compound remaining in dog liver microsome” value in data set [2] (with coenzyme) was found to be 0.16%; in data set [2] (without coenzyme), 0.19%. The “Percentage of the compound remaining in rat liver microsome” value amounted to 0.08% in data set [3] (with coenzyme) and 0.04% in data set [3] (without coenzyme). The “Percentage of the compound remaining in mouse liver microsome” value in data set [4] (with coenzyme) and in data set [4] (without coenzyme) was 0.01% each time. For the same molecule, the solubility at 24 h in data set [5] amounted to 59.2 µg/mL (≈ 204 µM).
Take `CCCOC(=O)N1CCC[C@H]1C(=O)OCOc1ccc([N+](=O)[O-])c2cccnc12` [Compound 18, (S)-2-(5-nitroquinolin-8-yloxy)methyl 1-propyl pyrrolidine-1,2-dicarboxylate]: the “Percentage of the compound remaining in human liver microsome” value in data set [1] (with coenzyme) is given as 2.65%; in data set [1] (without coenzyme), 5.06%. Moreover, the “Percentage of the compound remaining in dog liver microsome” value is given as 0.14% in data set [2] (with coenzyme) and 1.40% in data set [2] (without coenzyme). Besides, the “Percentage of the compound remaining in rat liver microsome” value was 0.06% in data set [3] (with coenzyme) and 4.63% in data set [3] (without coenzyme). The “Percentage of the compound remaining in mouse liver microsome” value was determined as 0.26% in data set [4] (with coenzyme) and 0.00% in data set [4] (without coenzyme). In addition, the solubility at 24 h in data set [5] amounted to 132 µg/mL (≈ 328 µM). The “water solubility compared with nitroxoline” value in data set [5] is on record as “increased by several times”.
For `CC(=O)OC(C)Oc1ccc([N+](=O)[O-])c2cccnc12` (stereo not drawn) [Compound 47, 1-(5-nitroquinolin-8-yloxy)ethyl acetate], the entries for the “Percentage of the compound remaining in human liver microsome” value in data set [1] (with coenzyme) and in data set [1] (without coenzyme) were 0.03% and 0.02%, respectively. Moreover, the “Percentage of the compound remaining in dog liver microsome” value was determined as 0.01% in data set [2] (with coenzyme) and 0.02% in data set [2] (without coenzyme). Also, the “Percentage of the compound remaining in rat liver microsome” value turned out to be 0.01% in data set [3] (with coenzyme) and 0.02% in data set [3] (without coenzyme). Also, the “Percentage of the compound remaining in mouse liver microsome” value in data set [4] (with coenzyme) and in data set [4] (without coenzyme) was 0.04% in each case. The same molecule gave a solubility at 24 h in data set [5] of 285 µg/mL.
Consider `CC(OC(=O)C(C)C)Oc1ccc([N+](=O)[O-])c2cccnc12` (stereo not drawn) [Compound 49, 1-(5-nitroquinolin-8-yloxy)ethyl isobutyrate], for which the “Percentage of the compound remaining in human liver microsome” value in data set [1] (with coenzyme) and in data set [1] (without coenzyme) was 0.03% in each case. Further, the “Percentage of the compound remaining in dog liver microsome” value in data set [2] (with coenzyme) and in data set [2] (without coenzyme) was 0.01% in each case. For the same molecule, the figures for the “Percentage of the compound remaining in rat liver microsome” value in data set [3] (with coenzyme) and in data set [3] (without coenzyme) were 0.01% and 0.03%, respectively. Moreover, the figures for the “Percentage of the compound remaining in mouse liver microsome” value in data set [4] (with coenzyme) and in data set [4] (without coenzyme) were 0.01% and 0.03%, respectively. Moreover, the solubility at 24 h in data set [5] was found to be 105 µg/mL (≈ 344 µM).
Consider `CC(=O)N(C)CC(=O)OCc1cccnc1N(C)C(=O)OCOc1ccc([N+](=O)[O-])c2cccnc12` [Compound 65], for which the results for the “Percentage of the compound remaining in human liver microsome” value in data set [1] (with coenzyme) and in data set [1] (without coenzyme) were 29.88% and 39.15%, respectively. Also, the “Percentage of the compound remaining in dog liver microsome” value was 65.08% in data set [2] (with coenzyme) and 93.36% in data set [2] (without coenzyme). Besides, the “Percentage of the compound remaining in rat liver microsome” value in data set [3] (with coenzyme) was found to be 4.33%; in data set [3] (without coenzyme) it was 59.38%. In addition, the “Percentage of the compound remaining in mouse liver microsome” value in data set [4] (with coenzyme) is recorded as 0.72%; in data set [4] (without coenzyme), 2.63%. For the same molecule, in data set [5], the solubility at 24 h was 965 µg/mL (≈ 1940 µM). Further, the “water solubility compared with nitroxoline” value in data set [5] is on record as “increased by several times”.
In the case of `CN(CC(=O)OCc1cccnc1N(C)C(=O)OCOc1ccc([N+](=O)[O-])c2cccnc12)C(=O)C(C)(C)C` [Compound 66], the “Percentage of the compound remaining in human liver microsome” value is given as 9.77% in data set [1] (with coenzyme) and 74.45% in data set [1] (without coenzyme). Moreover, the results for the “Percentage of the compound remaining in dog liver microsome” value in data set [2] (with coenzyme) and in data set [2] (without coenzyme) were 13.05% and 67.43%, respectively. In addition, the “Percentage of the compound remaining in rat liver microsome” value in data set [3] (with coenzyme) is 0.06%; in data set [3] (without coenzyme), 12.10%. For the same molecule, the “Percentage of the compound remaining in mouse liver microsome” value in data set [4] (with coenzyme) is given as 0.02%; in data set [4] (without coenzyme), 4.32%. The same molecule displayed a solubility at 24 h in data set [5] of 540 µg/mL (≈ 1000 µM). In addition, the “water solubility compared with nitroxoline” value in data set [5] was “increased by several times”.
Consider `CN(C)C(=O)Oc1ccc([N+](=O)[O-])c2cccnc12` [Compound 78, 5-nitroquinolin-8-yl dimethylcarbamate], for which the “Percentage of the compound remaining in human liver microsome” value in data set [1] (with coenzyme) was determined as 14.46%; in data set [1] (without coenzyme) it was 90.37%. In addition, the entries for the “Percentage of the compound remaining in dog liver microsome” value in data set [2] (with coenzyme) and in data set [2] (without coenzyme) were 0.36% and 98.41%, respectively. Besides, the “Percentage of the compound remaining in rat liver microsome” value amounted to 2.40% in data set [3] (with coenzyme) and 91.50% in data set [3] (without coenzyme). The figures for the “Percentage of the compound remaining in mouse liver microsome” value in data set [4] (with coenzyme) and in data set [4] (without coenzyme) were 0.00% and 100.18%, respectively. In data set [5], the solubility at 24 h turned out to be 226 µg/mL (≈ 863 µM).
